pIC50: −log10 of the molar value. Structures can show the parent of a compound that is named as a salt.
Columns and labels:
human STING (hSTING) = molecular target: T1, human STING (hSTING) (Homo sapiens, UniProt Q86WV6); assay: Inhibition test of intracellular human STING (hSTING) pathway using SEAP reporter cells (HEK-Blue ISG), stimulation with Compound 3; format: cell-based; design: hSTING inhibitory activity: scale not given here; details: Compound 3 10 nM stimulation, 21 hours; for pIC50: read-out: hSTING inhibitory activity
T1 construct: host or cells: HEK-Blue ISG cells (HEK293-derived SEAP reporter line)
T1 sequence (Q86WV6 whole entry H232R): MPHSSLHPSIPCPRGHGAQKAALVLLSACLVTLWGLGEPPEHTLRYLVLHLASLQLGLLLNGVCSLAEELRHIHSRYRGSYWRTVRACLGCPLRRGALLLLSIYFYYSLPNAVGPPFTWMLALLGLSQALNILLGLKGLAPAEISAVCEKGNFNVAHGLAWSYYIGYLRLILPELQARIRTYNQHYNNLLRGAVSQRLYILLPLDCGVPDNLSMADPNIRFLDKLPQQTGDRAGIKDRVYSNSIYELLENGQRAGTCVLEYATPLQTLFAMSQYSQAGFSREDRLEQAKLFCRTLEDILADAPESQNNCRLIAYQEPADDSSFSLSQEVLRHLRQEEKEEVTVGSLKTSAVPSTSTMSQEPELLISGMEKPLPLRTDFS
Outline: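 HEK-Blue ISG cells with IRF-inducible SEAP reporter, pretreated 1 h with compound (final 0.1 to 10 μM), then stimulated with Compound 3 (final 10 nM) for 21 h at 37° C. Supernatant SEAP measured colorimetrically; IC50 from log-concentration regression, normalized to stimulated (100%) and unstimulated (0%) controls.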

[1] = tested on: STING activation (IFN-β production in THP-1 cells); assay: Human IFN-β production inhibition test by cGAMP stimulation in THP-1 cells; format: cell-based; design: IFN-β bioinhibitory activity: scale not given here; details: 2'3'-cGAMP transfection, 18 hours, IFN-β ELISA; for pIC50: Homo sapiens, read-out: IFN-β bioinhibitory activity
Outline: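 PMA-primed (100 nM, overnight) THP-1 cells pretreated 1 h with compound at 0.001 to 1 μM (0.1% DMSO), then transfected with 0.12 μg/well 2′3′-cGAMP and cultured 18 hours. Supernatant IFN-β measured by ELISA; IC50 by regression against log concentration, normalised to cGAMP-only (100%) and unstimulated (0%) controls.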

## C=C(C)c1ccc2[nH]c(Nc3c[nH]c4ccc(Cl)nc34)nc2c1 [Embodiment 100, N-(5-chloro-1H-pyrrolo[3,2-b]pyridin-3-yl)-5-(prop-1-en-2-yl)-1H-benzo[d]imidazole-2-amine]
Human STING (hSTING)
  hSTING inhibitory activity: * * *
[1]
  IFN-β bioinhibitory activity: * * *

## C=Cc1ccc2[nH]cc(Nc3nc4cc(Oc5ccccc5)ccc4[nH]3)c2n1 [Embodiment 101, 5-phenoxy-N-(5-vinyl-1H-pyrrolo [3,2-b]pyridin-3-yl)-1H-benzo [d]imidazol-2-amine]
Human STING (hSTING)
  hSTING inhibitory activity: * * *
[1]
  IFN-β bioinhibitory activity: * *

## CCc1ccc2[nH]cc(Nc3nc4cc(Oc5ccccc5)ccc4[nH]3)c2n1 [Embodiment 103, N-(5-ethyl-1H-pyrrolo[3,2-b]pyridin-3-yl)-5-phenoxy-1H-benzo [d]imidazol-2-amine]
Human STING (hSTING)
  hSTING inhibitory activity: * *
[1]
  pIC50: 6.00 to 7.00

## CC(C)c1ccc2[nH]c(Nc3c[nH]c4ccc(Cl)nc34)nc2c1 [Embodiment 104, N-(5-Chloro-1H-pyrrolo[3,2-b]pyridin-3-yl)-5-isopropyl-1H-benzo[d]imidazol-2-amine]
Human STING (hSTING)
  hSTING inhibitory activity: * *
[1]
  IFN-β bioinhibitory activity: * *

## Cn1c(Nc2c[nH]c3ncc(Cl)cc23)nc2ccc(Oc3ccccc3)cc21 [Embodiment 108, N-(5-Chloro-1H-pyrrolo[2,3-b]pyridin-3-yl)-1-methyl-6-phenoxy-1H-benzo[d]imidazol-2-amine]
Human STING (hSTING)
  hSTING inhibitory activity: * *
[1]
  pIC50: ≤ 6.00

## Cn1c(Nc2c[nH]c3ncc(Cl)cc23)nc2cc(C(F)(F)F)ccc21 [Embodiment 109, N-(5-Chloro-1H-pyrrolo[2,3-b]pyridin-3-yl)-1-methyl-5-(trifluoromethyl)-1H-benzo[d] imidazol-2-amine]
Human STING (hSTING)
  hSTING inhibitory activity: * *
[1]
  pIC50: 6.00 to 7.00

## C#Cc1ccc2[nH]cc(Nc3nc4cc(Oc5ccccc5)ccc4[nH]3)c2n1 [Embodiment 111, N-(5-ethynyl-1H-pyrrolo[3,2-b]pyridin-3-yl)-5-phenoxy-1H-benzo[d]imidazol-2-amine formate]
Human STING (hSTING)
  hSTING inhibitory activity: * * *
[1]
  IFN-β bioinhibitory activity: * *

## Clc1ccc2[nH]cc(Nc3nc4cc(C5CCOCC5)ccc4[nH]3)c2n1 [Embodiment 112, N-(5-chloro-1H-pyrrolo[3,2-b]pyridin-3-yl)-5-(tetrahydro-2H-pyran-4-yl)-1H-benzo[d]imidazole-2-amine]
Human STING (hSTING)
  hSTING inhibitory activity: * *
[1]
  pIC50: 6.00 to 7.00

## CCO/C=C/c1ccc2[nH]c(Nc3c[nH]c4ccc(Cl)nc34)nc2c1 [Embodiment 114, (E)-N-(5-chloro-1H-pyrrolo[3,2-b]pyridin-3-yl)-5-(2-ethoxyvinyl)-1H-benzo[d]imidazol-2-amine]
Human STING (hSTING)
  hSTING inhibitory activity: * * *
[1]
  pIC50: ≤ 6.00

## CC(C)n1c(Nc2c[nH]c3ccc(Cl)nc23)nc2cc(Oc3ccccc3)ccc21 [Embodiment 116, N-(5-Chloro-1H-pyrrolo[3,2-b]pyridin-3-yl)-1-isopropyl-5-phenoxy-1H-benzo[d]imidazol-2-amine]
Human STING (hSTING)
  hSTING inhibitory activity: * * *
[1]
  pIC50: 6.00 to 7.00

## CC(C)n1c(Nc2c[nH]c3ccc(Cl)nc23)nc2ccc(Oc3ccccc3)cc21 [Embodiment 117, N-(5-Chloro-1H-pyrrolo[3,2-b]pyridin-3-yl)-1-isopropyl-6-phenoxy-1H-benzo[d]imidazol-2-amine]
Human STING (hSTING)
  hSTING inhibitory activity: * * *
[1]
  pIC50: 6.00 to 7.00

## Clc1ccc2[nH]cc(Nc3nc4cc(Oc5ccccc5)ccc4n3C3CC3)c2n1 [Embodiment 118, N-(5-Chloro-1H-pyrrolo[3,2-b]pyridin-3-yl)-1-cyclopropyl-5-phenoxy-1H-benzo[d]imidazol-2-amine]
Human STING (hSTING)
  hSTING inhibitory activity: * * *
[1]
  pIC50: 6.00 to 7.00

## Clc1ccc2[nH]cc(Nc3nc4ccc(Oc5ccccc5)cc4n3C3CC3)c2n1 [Embodiment 119, N-(5-Chloro-1H-pyrrolo[3,2-b]pyridin-3-yl)-1-cyclopropyl-6-phenoxy-1H-benzo[d]imidazol-2-amine]
Human STING (hSTING)
  hSTING inhibitory activity: * * *
[1]
  pIC50: 6.00 to 7.00

## Clc1ccc2[nH]cc(Nc3nc4cc(OC5CCCCC5)ccc4[nH]3)c2n1 [Embodiment 120, N-(5-Chloro-1H-pyrrolo[3,2-b]pyridin-3-yl)-5-(cyclohexyloxy)-1H-benzo[d]imidazol-2-amine formate]
Human STING (hSTING)
  hSTING inhibitory activity: * * *
[1]
  pIC50: 6.00 to 7.00

## Cc1ccc2[nH]c(Nc3c[nH]c4ccc(Cl)nc34)nc2c1 [Embodiment 123, N-(5-chloro-1H-pyrrolo[3,2-b]pyridin-3-yl)-5-methyl-1H-benzo[d] imidazol-2-amine]
Human STING (hSTING)
  hSTING inhibitory activity: * * *
[1]
  pIC50: 6.00 to 7.00

## Clc1ccc2[nH]cc(Nc3nc4cc(I)ccc4[nH]3)c2n1 [Embodiment 124, N-(5-Chloro-1H-pyrrolo[3,2-b]pyridin-3-yl)-5-iodo-1H-benzo[d] imidazol-2-amine]
Human STING (hSTING)
  hSTING inhibitory activity: * *
[1]
  IFN-β bioinhibitory activity: * * *

## Clc1ccc2[nH]cc(Nc3nc4cc(C#CC5CC5)ccc4[nH]3)c2n1 [Embodiment 125, N-(5-Chloro-1H-pyrrolo[3,2-b]pyridin-3-yl)-5-(cyclopropylethynyl)-1H-benzo[d]imidazol-2-amine]
Human STING (hSTING)
  hSTING inhibitory activity: * *
[1]
  pIC50: 6.00 to 7.00

## Clc1ccc2[nH]cc(Nc3nc4c(N5CCCCC5)cccc4[nH]3)c2n1 [Embodiment 127, N-(5-Chloro-1H-pyrrolo[3,2-b]pyridin-3-yl)-4-(piperidin-1-yl)-1H-benzo[d]imidazol-2-amine]
Human STING (hSTING)
  hSTING inhibitory activity: * *
[1]
  IFN-β bioinhibitory activity: * *

## CC(C)=Cc1ccc2[nH]c(Nc3c[nH]c4ccc(Cl)nc34)nc2c1 [Embodiment 128, N-(5-chloro-1H-pyrrolo[3,2-b]pyridin-3-yl)-5-(2-methylprop-1-en-1-yl)-1H-benzo[d]imidazole-2-amine]
Human STING (hSTING)
  hSTING inhibitory activity: * *
[1]
  IFN-β bioinhibitory activity: * * *

## Clc1ccc2[nH]cc(Nc3nc4cc(C5CC5)ccc4[nH]3)c2n1 [Embodiment 129, N-(5-Chloro-1H-pyrrolo[3,2-b]pyridin-3-yl)-5-cyclopropyl-1H-benzo[d]imidazol-2-amine]
Human STING (hSTING)
  hSTING inhibitory activity: * *
[1]
  IFN-β bioinhibitory activity: * *

## N#Cc1ccc2[nH]cc(Nc3nc4cc(Oc5ccccc5)ccc4[nH]3)c2n1 [Embodiment 130, 3-[(5-phenoxy-1H-benzo[d]imidazol-2-yl)amino]-1H-pyrrolo[3,2-b] pyridine-5-carbonitrile]
Human STING (hSTING)
  hSTING inhibitory activity: * *
[1]
  pIC50: ≤ 6.00

## CC(C)Cc1ccc2[nH]c(Nc3c[nH]c4ccc(Cl)nc34)nc2c1 [Embodiment 131, N-(5-Chloro-1H-pyrrolo[3,2-b]pyridin-3-yl)-5-isobutyl-1H-benzo [d]imidazol-2-amine formate]
Human STING (hSTING)
  hSTING inhibitory activity: * *
[1]
  IFN-β bioinhibitory activity: * *

## C#Cc1ccc2[nH]c(Nc3c[nH]c4ccc(Cl)nc34)nc2c1 [Embodiment 133, N-(5-Chloro-1H-pyrrolo[3,2-b]pyridin-3-yl)-5-ethynyl-1H-benzo[d] imidazol-2-amine formate]
Human STING (hSTING)
  hSTING inhibitory activity: * *
[1]
  IFN-β bioinhibitory activity: * * *

## CC#Cc1ccc2[nH]c(Nc3c[nH]c4ccc(Cl)nc34)nc2c1 [Embodiment 136, N-(5-Chloro-1H-pyrrolo[3,2-b]pyridin-3-yl)-5-(prop-1-yn-1-yl)-1H-benzo[d]imidazole-2-amine]
Human STING (hSTING)
  hSTING inhibitory activity: * *
[1]
  pIC50: 6.00 to 7.00

## C=C(C)c1ccnc2c(Nc3nc4cc(Oc5ccccc5)ccc4[nH]3)c[nH]c12 [Embodiment 144, 5-phenoxy-N-[7-(prop-1-en-2-yl)-1H-pyrrolo[3,2-b]pyridin-3-yl]-1H-benzo[d]imidazole-2-amine]
Human STING (hSTING)
  hSTING inhibitory activity: * *
[1]
  pIC50: ≤ 6.00

## COCC#Cc1ccc2[nH]c(Nc3c[nH]c4ccc(Cl)nc34)nc2c1 [Embodiment 145, N-(5-Chloro-1H-pyrrolo[3,2-b]pyridin-3-yl)-5(3-methoxyprop-1-yn-1-yl)-1H-benzo[d]imidazole-2-amine]
Human STING (hSTING)
  hSTING inhibitory activity: * *
[1]
  pIC50: 6.00 to 7.00

## Clc1ccc2[nH]cc(Nc3nc4c(C5=CCOCC5)cccc4[nH]3)c2n1 [Embodiment 149, N-(5-chloro-1H-pyrrolo[3,2-b]pyridin-3-yl)-4-(3,6-dihydro-2H-pyran-4-yl)-1H-benzo[d]imidazol-2-amine]
Human STING (hSTING)
  pIC50: 5.00 to 6.00
[1]
  pIC50: 6.00 to 7.00

## Clc1ccc2[nH]cc(Nc3nc4cc(N5CCCCC5)ccc4[nH]3)c2n1 [Embodiment 151, N-(5-Chloro-1H-pyrrolo[3,2-b]pyridin-3-yl)-5-(piperidin-1-yl)-1H-benzo[d]imidazol-2-amine]
Human STING (hSTING)
  hSTING inhibitory activity: * *
[1]
  pIC50: 6.00 to 7.00

## Cn1c(Nc2c[nH]c3ccc(Cl)nc23)nc2c(N3CCCCC3)cccc21 [Embodiment 157, N-(5-chloro-1H-pyrrolo[3,2-b]pyridin-3-yl)-1-methyl-4-(piperidin-1-yl)-1H-benzo[d]imidazole-2-amine formate]
Human STING (hSTING)
  hSTING inhibitory activity: * *
[1]
  pIC50: 6.00 to 7.00

## CC(C)Oc1ccc2[nH]c(Nc3c[nH]c4ccc(Cl)nc34)nc2c1 [Embodiment 158, N-(5-Chloro-1H-pyrrolo[3,2-b]pyridin-3-yl)-5-isopropoxy-1H-benzo [d]imidazol-2-amine]
Human STING (hSTING)
  hSTING inhibitory activity: * *
[1]
  pIC50: 6.00 to 7.00

## COc1ccc2c(c1)nc(Nc1c[nH]c3ccc(Cl)nc13)n2C [Embodiment 159, N-(5-Chloro-1H-pyrrolo[3,2-b]pyridin-3-yl)-5-methoxy-1-methyl-1H-benzo[d]imidazol-2-amine]
Human STING (hSTING)
  pIC50: 5.00 to 6.00
[1]
  pIC50: 6.00 to 7.00
